Experimental data taken from patent publication US11161837B2, “Benzofuran derivatives for the treatment of hepatitis C” (BRISTOL-MYERS SQUIBB COMPANY, priority 2016, dated 2021).

What was measured:
[1] = system: genotype 1b (Con-1) HCV replicon in Huh-7 cells; test: HCV replicon luciferase assay; assay type: cell-based; conditions: 1b replicon, Huh-7, Renilla luciferase, 3 days incubation
Summary of the method: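 Huh-7 cells carrying Con-1 genotype 1b replicon with Renilla luciferase reporter seeded onto titrated compound in DMEM, 4% FBS, 0.5% DMSO, 3 days at 37 °C. Luciferase read with EnduRen substrate (7.5 μM final) after ≥1 h; EC50 by four-parameter logistic fit.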

[2] = target: T1, NS5B proteins of HCV genotype 1b (Con1) (Hepatitis C virus genotype 1b, UniProt Q9WMX2); test: HCV NS5B RdRp enzyme assay; assay type: biochemical; conditions: 1b enzyme
T1 construct: Each untagged protein was expressed with an 18 amino acid C-terminal truncation to enhance the solubility; made in house; host or cells: E. coli BL21(DE3), pET21a
T1 sequence (Q9WMX2 2420-2992): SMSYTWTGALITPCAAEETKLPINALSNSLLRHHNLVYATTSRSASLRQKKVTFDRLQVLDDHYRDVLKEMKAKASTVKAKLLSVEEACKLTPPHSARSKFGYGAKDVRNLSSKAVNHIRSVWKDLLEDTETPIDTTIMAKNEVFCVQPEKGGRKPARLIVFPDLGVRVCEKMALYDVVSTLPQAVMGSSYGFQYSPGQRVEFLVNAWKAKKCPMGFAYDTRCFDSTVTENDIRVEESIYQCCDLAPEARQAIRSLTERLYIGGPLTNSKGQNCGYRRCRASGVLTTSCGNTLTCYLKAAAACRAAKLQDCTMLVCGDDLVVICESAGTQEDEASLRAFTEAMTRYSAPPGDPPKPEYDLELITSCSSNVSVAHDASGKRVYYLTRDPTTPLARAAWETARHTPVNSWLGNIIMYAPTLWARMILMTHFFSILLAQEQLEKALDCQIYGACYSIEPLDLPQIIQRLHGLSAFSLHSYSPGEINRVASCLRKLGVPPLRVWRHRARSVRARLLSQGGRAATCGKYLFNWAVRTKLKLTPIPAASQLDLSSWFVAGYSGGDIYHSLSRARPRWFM
Description: HCVNS5B RdRp Cloning, Expression, and Purification.
The cDNA encoding NS5B proteins of HCV genotype 1b (Con1), a genotype 1b variant with amino acid 316 mutated from cysteine to asparagine, and genotype 2a (JFH-1), were cloned into the pET21a expression vector. Each untagged protein was expressed with an 18 amino acid C-terminal truncation to enhance the solubility. The E. coli competent cell line BL21(DE3) was used for expression of the protein. Cultures were grown at 37° C. for ˜4 hours until the cultures reached an optical density of 2.0 at 600 nm. The cultures were cooled to 20° C. and induced with 1 mM IPTG. Fresh ampicillin was added to a final concentration of 50 μg/mL and the cells were grown overnight at 20° C.
Cell pellets (3 L) were lysed for purification to yield 15-24 mgs of purified NS5B. The lysis buffer consisted of 20 mM Tris-HCl, pH 7.4, 500 mM NaCl, 0.5% triton X-100, 1 mM DTT, 1 mM EDTA, 20% glycerol, 0.5 mg/mL lysozyme, 10 mM MgCl2, 15 ug/mL deoxyribonuclease I, and Complete TM protease inhibitor tablets (Roche). After addition of the lysis buffer, frozen cell pellets were resuspended using a tissue homogenizer. To reduce the viscosity of the sample, aliquots of the lysate were sonicated on ice using a microtip attached to a Branson sonicator. The sonicated lysate was centrifuged at 100,000×g for 30 minutes at 4° C. and filtered through a 0.2 μm filter unit (Corning).
The protein was purified using two sequential chromatography steps: Heparin sepharose CL-6B and polyU sepharose 4B. The chromatography buffers were identical to the lysis buffer but contained no lysozyme, deoxyribonuclease I, MgCl2 or protease inhibitor and the NaCl concentration of the buffer was adjusted according to the requirements for charging the protein onto the column. Each column was eluted with a NaCl gradient which varied in length from 5-50 column volumes depending on the column type. After the final chromatography step, the resulting purity of the enzyme is >90% based on SDS-PAGE analysis. The enzyme was aliquoted and stored at −80° C.
HCVNS5B RdRp Enzyme Assay.
An on-bead solid phase homogeneous assay was used in a 384-well format to assess NS5B inhibitors (WangY-K, Rigat K, Roberts S, and Gao M (2006) Anal Biochem, 359: 106-111). The biotinylated oligo dT12 primer was captured on streptavidin-coupled imaging beads (GE, RPNQ0261) by mixing primer and beads in 1× buffer and incubating at room temperature for three hours. Unbound primer was removed after centrifugation. The primer-bound beads were resuspended in 3× reaction mix (20 mM Hepes buffer, pH 7.5, dT primer coupled beads, poly A template, ^3H-UTP, and RNAse inhibitor (Promega N2515)). Compounds were serially diluted 1:3 in DMSO and aliquoted into assay plates. Equal volumes (10 μL) of water, 3× reaction mix, and enzyme in 3× assay buffer (60 mM Hepes buffer, pH 7.5, 7.5 mM MgCl2, 7.5 mM KCl, 3 mM DTT, 0.03 mg/mL BSA, 6% glycerol) were added to the diluted compound on the assay plate. Final concentration of components in 384-well assay: 0.36 nM template, 15 nM primer, 0.29 μM ^3H-UTP (0.3 μCi), 1.6 U/μL RNAse inhibitor, 7 nM NS5B enzyme, 0.01 mg/mL BSA, 1 mM DTT, and 0.33 μg/μL beads, 20 mM Hepes buffer, pH 7.5, 2.5 mM MgCl2, 2.5 mM KCl, and 0.1% DMSO.
Reactions were allowed to proceed from 4 to 24 hours at 30° C. For 24 hour reactions, enzyme and inhibitors were pre-incubated for 24 hours before adding template and primer. Reactions were terminated by the addition of 50 mM EDTA (10 μL). After incubating for at least 15 minutes, plates were read on an Amersham LEADseeker multimodality imaging system.
IC50 values for compounds were determined using ten different [I]. IC50 values were calculated from the inhibition using the four-parameter logistic formula y=A+((B−A)/(1+((C/x)^D))), where A and B denote minimal and maximal % inhibition, respectively, C is the IC50, D is hill slope and x represents compound concentration.

| SMILES | EC50 [1] | IC50 [2] | EC50 ([1]; Hepatitis C virus, Huh-7, 72 h) |
| --- | --- | --- | --- |
| CNC(=O)c1c(-c2ccc(F)cc2)oc2cc(CCC(F)(F)F)c(-c3cccc(C(=O)NC4(c5ncccn5)CC(OC(F)(F)F)C4)c3)cc12 (single isomer, unassigned) [Example 45b, 2-(4-Fluorophenyl)-N-methyl-5-(3-((1-(pyrimidin-2-yl)-3-(trifluoromethoxy)cyclobutyl)carbamoyl)phenyl)-6-(3,3,3-trifluoropropyl)benzofuran-3-carboxamide] | 9.46 nM | 10 nM | – |
| CNC(=O)c1c(-c2ccc(F)cc2)oc2cc(CCC(F)(F)F)c(-c3ccc(OC)c(C(=O)NC4(c5ncccn5)CC(OC(F)(F)F)C4)c3)cc12 (single isomer, unassigned) [Example 47a, 2-(4-Fluorophenyl)-5-(4-methoxy-3-((1-(pyrimidin-2-yl)-3-(trifluoromethoxy)cyclobutyl)carbamoyl)phenyl)-N-methyl-6-(3,3,3-trifluoropropyl)benzofuran-3-carboxamide] | – | 20 nM | 10 nM |
| CNC(=O)c1c(-c2ccc(F)cc2)oc2cc(CCC(F)(F)F)c(-c3ccc(OC)c(C(=O)NC4(c5ncccn5)CC(OC(F)(F)F)C4)c3)cc12 (single isomer, unassigned) [Example 47b, 2-(4-Fluorophenyl)-5-(4-methoxy-3-((1-(pyrimidin-2-yl)-3-(trifluoromethoxy)cyclobutyl)carbamoyl)phenyl)-N-methyl-6-(3,3,3-trifluoropropyl)benzofuran-3-carboxamide] | 10 nM | 10 nM | – |
| CCCc1cc2oc(-c3ccc(F)cc3)c(C(=O)NC)c2cc1-c1ccc(F)c(C(=O)NC2(c3ncccn3)CC(OC(F)(F)F)C2)c1 (single isomer, unassigned) [Example 48b, 5-(4-Fluoro-3-((1-(pyrimidin-2-yl)-3-(trifluoromethoxy)cyclobutyl)carbamoyl)phenyl)-2-(4-fluorophenyl)-N-methyl-6-propylbenzofuran-3-carboxamide] | 10 nM | 8.27 nM | – |
| CNC(=O)c1c(-c2ccc(F)cc2)oc2cc(CCC(F)(F)F)c(-c3ccc(F)c(C(=O)NC4(c5ncccn5)CC(OC(F)(F)F)C4)c3)cc12 (single isomer, unassigned) [Example 49b, 5-(4-Fluoro-3-((1-(pyrimidin-2-yl)-3-(trifluoromethoxy)cyclobutyl)carbamoyl)phenyl)-2-(4-fluorophenyl)-N-methyl-6-(3,3,3-trifluoropropyl)benzofuran-3-carboxamide] | 20 nM | 10 nM | – |
| CCCc1cc2oc(-c3ccc(F)cc3)c(C(=O)NC)c2cc1-c1ccc(OC)c(C(=O)NC2(c3ncccn3)CC(OC(F)(F)F)C2)c1 (single isomer, unassigned) [Example 51a, 2-(4-Fluorophenyl)-5-(4-methoxy-3-((1-(pyrimidin-2-yl)-3-(trifluoromethoxy)cyclobutyl)carbamoyl)phenyl)-N-methyl-6-propylbenzofuran-3-carboxamide] | – | 50 nM | 20 nM |
| CCCc1cc2oc(-c3ccc(F)cc3)c(C(=O)NC)c2cc1-c1ccc(OC)c(C(=O)NC2(c3ncccn3)CC(OC(F)(F)F)C2)c1 (single isomer, unassigned) [Example 51b, 2-(4-Fluorophenyl)-5-(4-methoxy-3-((1-(pyrimidin-2-yl)-3-(trifluoromethoxy)cyclobutyl)carbamoyl)phenyl)-N-methyl-6-propylbenzofuran-3-carboxamide] | 10 nM | 20 nM | – |
| CCCc1cc2oc(-c3ccc(F)cc3)c(C(=O)NC)c2cc1-c1cc(C(=O)NC2(C)CC(OC(F)F)C2)c(OC)cc1C (single isomer, unassigned) [Example 57a, 5-(5-((3-(Difluoromethoxy)-1-methylcyclobutyl)carbamoyl)-4-methoxy-2-methylphenyl)-2-(4-fluorophenyl)-N-methyl-6-propylbenzofuran-3-carboxamide] | – | 10 nM | 50 nM |
| CNC(=O)c1c(-c2ccc(F)cc2)oc2cc(CCC(F)(F)F)c(-c3cccc(C(=O)NC4(C)CC(OC(F)F)C4)c3)cc12 (single isomer, unassigned) [Example 59b, 5-(3-((3-(Difluoromethoxy)-1-methylcyclobutyl)carbamoyl)phenyl)-2-(4-fluorophenyl)-N-methyl-6-(3,3,3-trifluoropropyl)benzofuran-3-carboxamide] | 20 nM | 10 nM | – |
| CNC(=O)c1c(-c2ccc(F)cc2)oc2cc(CCC(F)(F)F)c(-c3ccc(F)c(C(=O)NC4(C)CC(OC(F)F)C4)c3)cc12 (single isomer, unassigned) [Example 63b, 5-(3-((3-(Difluoromethoxy)-1-methylcyclobutyl)carbamoyl)-4-fluorophenyl)-2-(4-fluorophenyl)-N-methyl-6-(3,3,3-trifluoropropyl)benzofuran-3-carboxamide] | 10 nM | 3.03 nM | – |
| CNC(=O)c1c(-c2ccc(F)cc2)oc2cc(NCC(F)(F)F)c(-c3ccc(OC)c(C(=O)NC4(c5ncccn5)CC(OC(F)F)C4)c3)cc12 (single isomer, unassigned) [Example 64a] | – | 3.3 nM | 4.23 nM |
| CNC(=O)c1c(-c2ccc(F)cc2)oc2cc(NCC(F)(F)F)c(-c3ccc(OC)c(C(=O)NC4(c5ncccn5)CC(OC(F)F)C4)c3)cc12 (single isomer, unassigned) [Example 64b] | 5.97 nM | 3.97 nM | – |
| CNC(=O)c1c(-c2ccc(F)cc2)oc2cc(NCC(F)(F)F)c(-c3cccc(C(=O)NC4(c5ncccn5)CC(OC(F)F)C4)c3)cc12 (single isomer, unassigned) [Example 65a] | 8.72 nM | 4.55 nM | – |
| CNC(=O)c1c(-c2ccc(F)cc2)oc2cc(NCC(F)(F)F)c(-c3cccc(C(=O)NC4(c5ncccn5)CC(OC(F)F)C4)c3)cc12 (single isomer, unassigned) [Example 65b] | 4.23 nM | 4.73 nM | – |
| CCOc1cc2oc(-c3ccc(F)cc3)c(C(=O)NC)c2cc1-c1ccc(OC)c(C(=O)NC2(c3ncccn3)CC(OC(F)F)C2)c1 (single isomer, unassigned) [Example 66a, 5-(3-((3-(Difluoromethoxy)-1-(pyrimidin-2-yl)cyclobutyl)carbamoyl)-4-methoxyphenyl)-6-ethoxy-2-(4-fluorophenyl)-N-methylbenzofuran-3-carboxamide] | – | 1.91 nM | 4.05 nM |
| CCOc1cc2oc(-c3ccc(F)cc3)c(C(=O)NC)c2cc1-c1ccc(OC)c(C(=O)NC2(c3ncccn3)CC(OC(F)F)C2)c1 (single isomer, unassigned) [Example 66b, 5-(3-((3-(Difluoromethoxy)-1-(pyrimidin-2-yl)cyclobutyl)carbamoyl)-4-methoxyphenyl)-6-ethoxy-2-(4-fluorophenyl)-N-methylbenzofuran-3-carboxamide] | 4.39 nM | 2.02 nM | – |
